PubChem BioAssay AID330 (DTP/NCI, 2004)
Several values for one entry are separate records, joined by “and”; a condition that tells them apart may be missing. Identical values can stand only once. Inconclusive results and toxic doses are left out. Bridge positions count the residues as written; N and C are the ends. Peptide text beside a SMILES is read from it.

System: P388 leukemia ip, CD2F1 mice, survival T/C
Assay: NCI In Vivo Anticancer Drug Screen. Data for tumor model P388 Leukemia (intraperitoneal) in CD2F1 (CDF1) mice
Conditions: endpoint: median survival time, higher = longer survival
Method in brief: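 Mice carrying the transplanted tumor received test compound or vehicle. Survival was recorded in each group, and the value is the treated-group measurement divided by that of the vehicle-treated control group.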

[1] = dose: 60.0 mg/kg/injection, schedule: Q01DX005 (ip), vehicle: saline with Tween-80
[2] = dose: 120.0 mg/kg/injection, schedule: Q01DX005 (ip), vehicle: saline with Tween-80
[3] = dose: 25.0 mg/kg/injection, schedule: Q01DX009 (ip), vehicle: saline with Tween-80
[4] = dose: 50.0 mg/kg/injection, schedule: Q01DX009 (ip), vehicle: saline with Tween-80
[5] = dose: 200.0 mg/kg/injection, schedule: Q01DX009 (ip), vehicle: saline with Tween-80
[6] = dose: 240.0 mg/kg/injection, schedule: Q01DX005 (ip), vehicle: saline with Tween-80

## CC([OH2+])CNCCN.CC([OH2+])CNCCN.O=[N+]([O-])[O-].[Ni+2] (centres undefined)
dose: 3.13 mg/kg/injection, schedule: Q01DX009 (ip), vehicle: saline
  T/C: 87 % of control
dose: 6.25 mg/kg/injection, schedule: Q01DX009 (ip), vehicle: saline
  T/C: 88 % of control
dose: 12.5 mg/kg/injection, schedule: Q01DX009 (ip), vehicle: saline
  T/C: 102 % of control and 87 % of control

## Fc1ccc(CSC(=S)Nc2cccc(C(F)(F)F)c2)cc1
dose: 50.0 mg/kg/injection, schedule: Q01DX009 (ip), vehicle: suspension in saline
  T/C: 97 % of control
dose: 100.0 mg/kg/injection, schedule: Q01DX009 (ip), vehicle: suspension in saline
  T/C: 90 % of control

## N#CC1OC1c1cccnc1 (centres undefined)
dose: 12.5 mg/kg/injection, schedule: Q01DX005 (ip), vehicle: saline with Tween-80
  T/C: 105 % of control and 111 % of control
dose: 25.0 mg/kg/injection, schedule: Q01DX005 (ip), vehicle: saline with Tween-80
  T/C: 105 % of control and 106 % of control
dose: 50.0 mg/kg/injection, schedule: Q01DX005 (ip), vehicle: saline with Tween-80
  T/C: 121 % of control

## CCC(C)C1NC(=O)C(CC(C)C)NC(=O)C(C(C)C)NC(=O)C2CSSCC(NC1=O)C(=O)N2 (centres undefined) (cyclo(CCVLI); disulfide 1-2; configuration not given here)
dose: 31.25 micrograms/kg/injection, schedule: Q01DX009 (ip), vehicle: Klucel (hydroxypropylcellulose) (HPC)
  T/C: 106 % of control
dose: 62.5 micrograms/kg/injection, schedule: Q01DX009 (ip), vehicle: Klucel (hydroxypropylcellulose) (HPC)
  T/C: 100 % of control
dose: 125.0 micrograms/kg/injection, schedule: Q01DX009 (ip), vehicle: Klucel (hydroxypropylcellulose) (HPC)
  T/C: 94 % of control
dose: 250.0 micrograms/kg/injection, schedule: Q01DX009 (ip), vehicle: Klucel (hydroxypropylcellulose) (HPC)
  T/C: 97 % of control
dose: 500.0 micrograms/kg/injection, schedule: Q01DX009 (ip), vehicle: Klucel (hydroxypropylcellulose) (HPC)
  T/C: 99 % of control
dose: 1000.0 micrograms/kg/injection, schedule: Q01DX009 (ip), vehicle: Klucel (hydroxypropylcellulose) (HPC)
  T/C: 97 % of control

## CNC(=O)Nc1[nH]c(=O)ncc1Cl
[1]
  T/C: 112 % of control
[2]
  T/C: 113 % of control

## CN(CCO)C1=C(N2CC2)C(=O)C(N(C)CCO)=C(N2CC2)C1=O
dose: 0.4 mg/kg/injection, schedule: Q01DX009 (ip), vehicle: saline
  T/C: 175 % of control and 194 % of control
dose: 0.8 mg/kg/injection, schedule: Q01DX009 (ip), vehicle: saline
  T/C: 194 % of control and 245 % of control
dose: 1.6 mg/kg/injection, schedule: Q01DX009 (ip), vehicle: saline
  T/C: 119 % of control and 262 % of control

## CC(=O)n1c(Cl)c(/C=N/NC(N)=S)c2ccccc21
dose: 100.0 mg/kg/injection, schedule: Q01DX001 (ip), vehicle: saline with Tween-80
  T/C: 86 % of control
dose: 200.0 mg/kg/injection, schedule: Q01DX001 (ip), vehicle: saline with Tween-80
  T/C: 94 % of control
dose: 400.0 mg/kg/injection, schedule: Q01DX001 (ip), vehicle: saline with Tween-80
  T/C: 100 % of control

## C/C=C1\C(=O)O[C@@]23C=C[C@H]4C(C(=O)OC)=CO[C@@H](O[C@H]12)[C@H]43
dose: 0.63 mg/kg/injection, schedule: Q01DX009 (ip), vehicle: Klucel (hydroxypropylcellulose) (HPC)
  T/C: 100 % of control
dose: 0.63 mg/kg/injection, schedule: Q01DX009 (ip), vehicle: saline
  T/C: 98 % of control
dose: 1.25 mg/kg/injection, schedule: Q01DX009 (ip), vehicle: Klucel (hydroxypropylcellulose) (HPC)
  T/C: 100 % of control
dose: 1.25 mg/kg/injection, schedule: Q01DX009 (ip), vehicle: saline
  T/C: 98 % of control
dose: 2.5 mg/kg/injection, schedule: Q01DX009 (ip), vehicle: Klucel (hydroxypropylcellulose) (HPC)
  T/C: 98 % of control
dose: 2.5 mg/kg/injection, schedule: Q01DX009 (ip), vehicle: saline
  T/C: 100 % of control
dose: 5.0 mg/kg/injection, schedule: Q01DX009 (ip), vehicle: Klucel (hydroxypropylcellulose) (HPC)
  T/C: 100 % of control
dose: 5.0 mg/kg/injection, schedule: Q01DX009 (ip), vehicle: saline
  T/C: 98 % of control
dose: 10.0 mg/kg/injection, schedule: Q01DX009 (ip), vehicle: saline
  T/C: 104 % of control
dose: 20.0 mg/kg/injection, schedule: Q01DX009 (ip), vehicle: saline
  T/C: 113 % of control

## CC(C)(C)c1cc(C(C)(C)O)c2c(c1)C(C)(C)OS2(=O)=O
dose: 100.0 mg/kg/injection, schedule: Q04DX002 (ip), vehicle: Klucel (hydroxypropylcellulose) (HPC)
  T/C: 96 % of control
dose: 200.0 mg/kg/injection, schedule: Q04DX002 (ip), vehicle: Klucel (hydroxypropylcellulose) (HPC)
  T/C: 87 % of control
dose: 400.0 mg/kg/injection, schedule: Q04DX002 (ip), vehicle: Klucel (hydroxypropylcellulose) (HPC)
  T/C: 97 % of control

## CCCCCCC(=O)/C=C/c1cccc(OCc2ccc([N+](=O)[O-])cc2)c1
dose: 12.5 mg/kg/injection, schedule: Q01DX009 (ip), vehicle: saline with Tween-80
  T/C: 86 % of control
[3]
  T/C: 89 % of control
[4]
  T/C: 87 % of control and 91 % of control
[5]
  T/C: 88 % of control

## CC(C)=CN=Cc1nc(Cc2ccccc2)oc1O
[1]
  T/C: 105 % of control
[2]
  T/C: 96 % of control
[6]
  T/C: 94 % of control

## CCOC(=O)Nc1cc(NC(c2ccccc2)c2ccccc2)c2[nH]cnc2n1
[3]
  T/C: 88 % of control
[4]
  T/C: 88 % of control
dose: 100.0 mg/kg/injection, schedule: Q01DX009 (ip), vehicle: saline with Tween-80
  T/C: 117 % of control
[5]
  T/C: 96 % of control

## COc1ccc(C(Nc2ccc([N+](=O)[O-])cc2)P(=O)(c2ccccc2)c2ccccc2)cc1 (centres undefined)
[1]
  T/C: 99 % of control
[2]
  T/C: 92 % of control
[6]
  T/C: 88 % of control
